Experiment [1] has as its system VSMCs. In words: VSMC proliferation assay by BrdU incorporation. Type of experiment: cell-based, human. As to conditions: for BrdU incorporation: control 0.86±0.03. The procedure:
VSMCs were grown in 96-well plates or 8-well chamber slides and incubated with 10^−7 M of MPA (Sigma-Aldrich) or ETO (Organon) or P4 (Sigma-Aldrich) or vehicle±rCCL2 (R&D Systems)±STAT1 inhibitor, 5′-methyl-thioadenosine (MTA; EMD Millipore) (19) for 48 or 72 h. VSMCs were then analyzed for apoptosis by an ELISA based apoptosis kit (Roche) or cleaved-caspase 3 immunostaining. VSMC proliferation was measured by BrdU incorporation Kit (Cell Signaling). (See further details in SI Materials and Methods).
VSMCs were thawed and cultured in T-75 cell culture flasks in medium 231 (M231; Life Technologies) with smooth muscle growth supplement (5% FBS; 2 ng/mL human basic fibroblast growth factor, 0.5 ng/mL human epidermal growth factor, 5 ng/mL heparin, 0.2 μg/mL insulin and 5 μg/mL BSA; Life Technologies) with 100 U/mL penicillin, 100 μg/mL streptomycin, and 0.25 μg/mL fungizone. Confluent VSMCs were washed twice with 1×PBS to remove residual serum, and then passaged (5,000 cells per well) in 96-well plates and incubated in parallel in M231 with 1% charcoal striped FBS with 0.1% ethanol (vehicle, control), 10^−7 M MPA (Sigma-Aldrich), 10^−7 M ETO (Organon), or 10^−7 M P4 (Sigma-Aldrich)±rCCL2 (monocyte chemotactic protein-1; R&D Systems)±STAT1 inhibitor, 5′-methyl-thioadenosine (MTA; EMD Millipore) for 48 or 72 h.
BrdU (Cell Signaling) 1× in 100-μL M231 was added to each well during the final 24 h of incubation. At the end of 48- or 72-h incubation period, medium was removed and the wells washed twice with ice-cold PBS. VSMC proliferation was measured using BrdU cell proliferation Kit (Cell Signaling) at room temperature. Cells was incubated in 100 μL per well of the fixing/denaturing solution for 30 min, and then replaced by 100 μL per well BrdU detection antibody solution for 1 h. Following three rinses with wash buffer, plates were incubated in HRP-conjugated secondary antibody (100 μL per well) for 30 min. After three additional rinses with wash buffer, tetramethylbenzidine substrate solution (100 μL per well) was added for 20 min and the reaction stopped by adding 100 μL per well STOP solution. Absorbance was measured at 450 nm using Spectra Max190 microplate reader (Molecular Devices) to detect BrdU incorporation in each well.
A general note: Incorporation of labelled thymidine or its analogues reports DNA synthesis.

For another experiment, the system named is endometrial VSMCs. Kind of experiment: αSMA and PCNA double-immunostaining of endometrium of oophorectomized guinea pigs (OVX-GPs). The format is in vivo, guinea pig. Conditions: 21-d time-release pellets, mean±SEM. The source says: After receiving written informed consent at New York University under Institutional Review Board approval, paraffin sections were derived from banked paired endometrial tissues obtained before and after Depo therapy by […] biopsy from each reproductive age woman with regular menstrual cycles during the secretory phase (n=6). Based on an established animal model for LAPC-induced AUB in humans (9), nulliparous adult female pigmented GPs (weighing 525-775 g) were used in experimental procedures conforming to National Health and Medical Research Council Guidelines of Australia and approved by the Animal Ethics Committee of The University of Western Australia. GPs (n=24) were subjected to bilateral OVX and given subcutaneous 21-d time-release pellets (Innovative Research of America) containing MPA (50 mg/d; n=6) or 17β-Estradiol (E2) (0.1 mg/d; n=6), both MPA and E2 (n=6), or no pellets (n=6). On day 20 of exposure to the pellets, GPs were killed with pentobarbital and uterine tissues fixed in 10% formalin and processed for paraffin embedding. In vitro experiments used aortic VSMCs from premenopausal women (n=2) (Life Technologies). Paraffin sections (5 μm) from paired pre- vs. post-Depo treated human or GP endometria were deparaffinized, boiled in citrate buffer (pH: 6.0) and then incubated in methanol containing 3% H2O2. Following 10% normal horse serum blocking (Vector Labs), slides were incubated overnight at 4° C. with mouse anti-PCNA monoclonal antibody (EMD Millipore). After several rinses in Tris-buffered saline containing 0.1% tween-20 (TBS-T; pH 7.6) slides were then incubated with biotinylated anti-mouse IgG (Vector Labs) for 30 min, then with a streptavidin-peroxidase complex (Elite ABC kit; Vector Labs) for 30 min and with diaminobenzidine (DAB; Vector Labs) for 3 min. […] Slides were counterstained by Hematoxylin and evaluated by histological scoring (HSCORE), as described previously (34). (See details for HSCORE evaluation for αSMA immunoreactivity and PCNA quantitation in SI Materials and Methods). Staining intensity for α-SMA was semiquantitatively evaluated by Q:1 HSCORE (1). […] An HSCORE value was determined for each specimen by using the formula HSCORE=ΣPi (i+1), where Pi is the percentage of stained cells in each intensity category (i.e., i=1, 2, or 3). Quantitation of PCNA immunostaining was determined by counting the number of PCNA^+ (brown) and PCNA^- cell nuclei (blue) in VSMCs (αSMA immunostained cells) and obtaining the ratio of numbers of PCNA^+ cell nuclei to total αSMA^+ cells. For each slide, three different fields were evaluated microscopically at 200× magnification. Slides were evaluated at different times by two investigators blinded to tissue source, and the average HSCORE or percentage of cells with PCNA^+ nuclei to total αSMA^+ cells used.

For experiment [2], the system named is VSMCs. In words: Transwell insert migration assay. The format is cell-based, human. As to conditions: coincubation with 10 ng/mL rCCL2, 12 h. The procedure: VSMCs (75,000 cells/200 μL) were suspended in M231 containing 1% charcoal striped FBS and either 0.1% ethanol (vehicle control) or the corresponding steroids and seeded onto insert wells (transwell filter with 12-μm pores; EMD Millipore). The inserts were then placed in 24-well plates containing 500 μL M231 with 1% charcoal striped FBS. After 12 h, cells remaining on the upper surface of the filter were removed with a cotton swab. Migrated cells were trypsinized, centrifuged, and resuspended in 200 μL of M231 medium. The cell suspensions were mixed with 200 μL 10% ethanol containing 0.4% Trypan blue dye and the live cell number was counted by Countess Automated Cell Counter (Invitrogen). See further details in SI Materials and Methods.
Cultured VSMCs were grown in T-75 cell culture flasks in M231 (Life Technologies) with smooth muscle growth supplement (Life Technologies) with 100 U/mL penicillin, 100 μg/mL streptomycin, 0.25 μg/mL fungizone. Confluent VSMCs were washed twice with 1×PBS to remove residual serum, and then trypsinized, resuspended (75,000 cells per 200 μL per well) in M231 with 1% charcoal striped FBS with 0.1% ethanol (vehicle, control), 10^−7 M MPA (Sigma-Aldrich), 10^−7 M ETO (Organon), or 10^−7 M P4 (Sigma-Aldrich)±rCCL2 (R&D Systems) and seeded on insert wells (transwell filter with 12-μm pores; EMD Millipore), which were then placed in 24-well plates containing 500 μL M231 with 1% charcoal striped FBS. After 12 h, cells remaining on the upper surface of the filter were removed with a cotton swab. Migrated cells attached to the lower surface of each insert or to the surface of lower wells were collected by trypsinization, followed by centrifugation and resuspension in 200 μL of M231 medium. The cell suspensions were mixed with 200 μL 10% ethanol containing 0.4% Trypan blue dye (selectively stains only dead cells blue, whereas live cells with intact cell membranes remain unstained) for 5 min. A mixture of 100 μL M231 and 100 μL 10% ethanol containing 0.4% Trypan blue dye was used as a negative control. To detect live cell numbers, 10 μL of final cell/Trypan blue dye suspension from each treatment condition was pipetted into Countess Cell Counting Chamber Slide and counted by using Countess Automated Cell Counter (Invitrogen). The counting procedure was performed in duplicate.

Consider 5′-methyl-thioadenosine [MTA], for which, in the experiment on VSMCs [1] (100 μm MTA with 10 ng/mL rCCL2 and MPA or ETO), the “effect on rCCL2 reversal of progestin-inhibited BrdU incorporation” value is recorded as “abolished”.
Take `C[C@]12CC[C@@H]3c4ccc(O)cc4CC[C@H]3[C@@H]1CC[C@@H]2O` [E2, 17β-Estradiol]: the “PCNA+ endometrial VSMCs” value in the experiment with endometrial VSMCs (n=6, control 11.2%±2.3) is 36.8%±2.7. The “αSMA HSCORE” value with endometrial VSMCs (n=6, control 135.2±26.0) is reported as 212.7±14.6.
As to “rCCL2: recombinant chemokine (C-C motif) ligand 2 (monocyte chemotactic protein-1; R&D Systems)”, the “effect on inhibition of BrdU incorporation by ETO” value in the experiment with VSMCs [1] (10 ng/mL rCCL2 added to 10^−7 M ETO) is reported as “reversed”. Also, in the experiment with VSMCs [1] (10 ng/mL rCCL2 added to 10^−7 M MPA), the “effect on inhibition of BrdU incorporation by MPA” value was “reversed”. Further, the BrdU incorporation with VSMCs [1] (rCCL2 1 ng/mL) was found to be 1.05±0.05. The BrdU incorporation in the experiment with VSMCs [1] (rCCL2 10 ng/mL) amounted to 1.21±0.05. In addition, in the experiment on VSMCs [2], the “effect on inhibition of VSMC migration by ETO” value is listed as “did not reverse”, the “effect on inhibition of VSMC migration by MPA” value is on record as “partially reversed” and the “effect on inhibition of VSMC migration by P4” value is given as “did not reverse”.

(Values after patent publication US20180078615A1, “USE OF CCL2 TO INHIBIT ABNORMAL UTERINE BLEEDING” (UNIVERSITY OF SOUTH FLORIDA, priority 2015, published 2018).)
